Measurements as given in patent US11046701B2, “Salt of cetagliptin, preparation method thereof, pharmaceutical composition, and use thereof” (CGENETECH (SUZHOU, CHINA) CO., LTD., priority 2018, dated 2021).
Where “and” joins values, the source holds several entries; their conditions need not be identical. Equal values may be shown once.

What was measured:
DIO mice = assay: Long-term administration on DIO mice: fasting blood glucose; type: in vivo; details: for inhibition rate of the rise of the blood glucose: end of experiment (28 days), vs model control group; for fasting blood glucose data after the drug was administrated for 28 days: individual animals
Protocol: A solution with a certain concentration was prepared from the crystal form B of the phosphate, and the administration volume was 10 mL/kg.
Experimental animals: C57BL16 mice aged for 5 weeks and weighed for about 13-16 g.
Grouping and administration scheme: the mice were fed adaptively and divided into a normal control group and a model group which were fed with high-fat feed (Research diets, D 12492). When the fasting blood glucose of the mice was greater than or equal to 7 mM, it was considered that the mice had become DIO mice. The DIO mice could be selected for the hypoglycemic effect test. The DIO mice were stratified and randomly grouped according to the blood glucose and the weight. […] The weight and the fasting blood glucose were measured weekly; the food amount, the remaining food amount and the food intake were recorded; the mice were fasted overnight at the end of administration, the blood was sampled, and the free fatty acid (NEFA), total cholesterol (TCHO), triglyceride (TG), insulin and DPPIV activity were measured by using serum.

[1] = Stability of phosphate crystal form B under storage conditions (XRPD, HPLC purity); type: physicochemical
Protocol: High performance liquid chromatography (HPLC): the high performance liquid chromatogram was acquired by Agilent 1260 HPLC.
The crystal form B of phosphate prepared in this example was put into a 1.5 mL small bottle and the small bottles was placed under different conditions: 40° C./75% RH or 25° C./60% RH for one week in an open state, or 80° C. for 24 h. The obtained samples were subjected to XRPD test and HPLC test, and the sealed samples placed at 5° C. were used as reference samples (Initial) for HPLC purity test. […] The weight gain at 25° C./80% RH is 6.5% compared to 0% RH.

## C[C@@H]1c2cnc(C(F)(F)F)n2CCN1C(=O)C[C@H](N)Cc1cc(F)c(F)cc1F [DPPIV-P1, (8R)-7-[(3R)-3-amino-1-oxo-4-(2,4,5-trifluorophenyl)butyl]-5,6,7,8-tetrahydro-8-methyl-3-(trifluoromethyl)imidazo[1,5-a]pyrazine]
DIO mice; 0.3 mg/kg daily intragastric, D 1
  Fasting blood glucose: 8.3 ± 1.1 mmol/L
DIO mice; 0.3 mg/kg daily intragastric, D 3
  Fasting blood glucose: 8.4 ± 0.9 mmol/L
DIO mice; 0.3 mg/kg daily intragastric, D 7
  Fasting blood glucose: 8.4 ± 1.0 mmol/L
DIO mice; 0.3 mg/kg daily intragastric, D 14
  Fasting blood glucose: 8.9 ± 1.1 mmol/L
DIO mice; 0.3 mg/kg daily intragastric, D 21
  Fasting blood glucose: 8.5 ± 1.0 mmol/L
DIO mice; 0.3 mg/kg daily intragastric, D 28
  Fasting blood glucose: 8.3 ± 0.8 mmol/L
DIO mice; 0.3 mg/kg
  inhibition rate of the rise of the blood glucose: 14.2%
  fasting blood glucose data after the drug was administrated for 28 days: 10.3 and 8 (3×) and 7.3 (2×) and 8.8 and 8.7 and 8.3 and 8.6 and 7.9
DIO mice; 3 mg/kg daily intragastric, D 1
  Fasting blood glucose: 8.3 ± 1.1 mmol/L
DIO mice; 3 mg/kg daily intragastric, D 3
  Fasting blood glucose: 8.3 ± 0.9 mmol/L
DIO mice; 3 mg/kg daily intragastric, D 7
  Fasting blood glucose: 8.6 ± 2.2 mmol/L
DIO mice; 3 mg/kg daily intragastric, D 14
  Fasting blood glucose: 9.1 ± 1.6 mmol/L
DIO mice; 3 mg/kg daily intragastric, D 21
  Fasting blood glucose: 8.6 ± 1.0 mmol/L
DIO mice; 3 mg/kg daily intragastric, D 28
  Fasting blood glucose: 8.7 ± 0.9 mmol/L
DIO mice; 3 mg/kg
  inhibition rate of the rise of the blood glucose: 9.9%
  fasting blood glucose data after the drug was administrated for 28 days: 9.2 and 7.8 (2×) and 9.8 and 8.9 and 9 and 7.3 and 9.7 and 8 and 8.3 and 10
DIO mice; 30 mg/kg daily intragastric, D 1
  Fasting blood glucose: 8.3 ± 1.0 mmol/L
DIO mice; 30 mg/kg daily intragastric, D 3
  Fasting blood glucose: 7.8 ± 1.5 mmol/L
DIO mice; 30 mg/kg daily intragastric, D 7
  Fasting blood glucose: 7.9 ± 0.8 mmol/L
DIO mice; 30 mg/kg daily intragastric, D 14
  Fasting blood glucose: 7.7 ± 0.7 mmol/L
DIO mice; 30 mg/kg daily intragastric, D 21
  Fasting blood glucose: 8.1 ± 0.6 mmol/L
DIO mice; 30 mg/kg daily intragastric, D 28
  Fasting blood glucose: 7.9 ± 0.6 mmol/L
DIO mice; 30 mg/kg
  inhibition rate of the rise of the blood glucose: 18.5%
DIO mice; 30 mg/kg, listed as DPPIV-PI
  fasting blood glucose data after the drug was administrated for 28 days: 8.5 and 7.3 and 7.4 (3×) and 7.6 and 8.9 and 8.2 (2×) and 7.5 and 7.8
[1]; 25° C./60% RH, one week
  Crystal form: Phosphate crystal form B
[1]; 25° C./60% RH, one week, open
  Purity (area %): 99.65 area %
[1]; 40° C./75% RH, one week
  Crystal form: Phosphate crystal form B
[1]; 40° C./75% RH, one week, open
  Purity (area %): 99.64 area %
[1]; 80° C. for 24 h
  Appearance: changed from white solid into yellow solid
[1]; 80° C., 24 h
  Crystal form: Phosphate crystal form B
  Purity (area %): 99.48 area %
[1]; Initial
  Crystal form: Phosphate crystal form B
[1]; Initial (sealed reference sample placed at 5° C.)
  Purity (area %): 99.78 area %
